The assay relates to Escherichia coli ATCC 25922. As to the kind of experiment: Minimum inhibitory concentration (MIC), CLSI broth micro-dilution, E. coli. Format: cell-based. Conditions: Escherichia coli. How it is done: In vitro antimicrobial activity of each compound was determined by measuring minimal inhibitor concentrations (MICs) using the broth micro-dilution technique as approved by the Clinical and Laboratory Standards Institute (CLSI) (Methods for Dilution Antimicrobial Susceptibility Tests for Bacteria that Grow Aerobically; Approved Standard-Eighth Edition. CLSI document M07-A8. Wayne, PA: Clinical and Laboratroy Standards; 2009). Antibacterial activity was measure against two strains of bacteria: a Methicillin Resistant Staphylococcus aureus strain USA 200, (S. aureus) and Escherichia coli ATCC 25922 (E. coli), a clinically relevant Gram-negative strain. Cells were inoculated onto plates of Trypyticase Soy Agar or Luria Agar respectively and grown at 35° C. for 20 hours. Inocula suspensions were prepared by scraping cells into 1 mL of testing media (cation adjusted Mueller Hinton Broth supplemented with 0.002% v/v Tween-80) and diluting to a final OD600nm of 0.01.
Test compounds were prepared in DMSO at a concentration of 10 mg/mL. In protocol 1, the compound stocks were diluted into testing media at a concentration of 64 µg/ml and serial 2-fold dilutions were made in the same media, in 96-well U bottom microtiter dishes, for a total of 10 compound concentrations. In protocol 2, the compound stocks were diluted into testing media at a concentration of 4 µg/mL and serial 2-fold dilutions were made in the same media, in 96-well U bottom microtiter dishes, for a total of 10 compound concentrations. In protocol 3, compound stocks were diluted into testing media at a concentration of 0.5 μg/mL, with serial 2-fold dilutions conducted as described above. In protocol 4, compound stocks were diluted into testing media at a concentration of […], with serial 2-fold dilutions conducted as described above. Inocula suspensions were added to the 2-fold serial dilutions of test compounds to a final density of GD OD600nm of 0.0005 and incubated at 35° C. for 22 hours.
A general note: Broth dilution looks for growth in wells or tubes with falling amounts of substance.

Setting [1] is: ATCC25922, 22 h, Table 6, cation adjusted Mueller Hinton Broth + 0.002% Tween-80, 35° C.
Where [2] appears, read: ATCC25922, Table 6, cation adjusted Mueller Hinton Broth + 0.002% Tween-80, 35° C., 22 hours.

`Cc1nc(-c2ccc(OCCCCC(C)(C)C)cc2)nc(C)c1C(=O)N[C@@H](CCN)C(=O)N(C)[C@@H]1C(=O)N[C@@H](C)C(=O)N[C@H](C(=O)NCC#N)Cc2ccc(OCCN)c(c2)-c2cc1ccc2OCCN` (racemic) [Compound 357, rac-(8S,11S,14S)-3,18-bis(2-aminoethoxy)-N-(cyanomethyl)-11-methyl-14-[methyl-[rac-(2S)-4-amino-2-[[2-[4-(5,5-dimethylhexoxy)phenyl]-4,6-dimethyl-pyrimidine-5-carbonyl]amino]butanoyl]amino]-10,13-dioxo-9,12-diazatricyclo[13.3.1.12,6]icosa-1(18),2(20),3,5,15(19),16-hexaene-8-carboxamide]: the MIC under setting [1] was 0.19 µM.

`Cc1cc(-c2ccc(C(C)(C)C)cc2)nc(C)c1C(=O)N[C@@H](CCN)C(=O)N(C)[C@@H]1C(=O)N[C@@H](C)C(=O)N[C@H](C(=O)NCC#N)Cc2ccc(OCCN)c(c2)-c2cc1ccc2OCCN` (racemic) [Compound 358, rac-(8S,11S,14S)-3,18-bis(2-aminoethoxy)-N-(cyanomethyl)-11-methyl-14-[methyl-[rac-(2S)-4-amino-2-[[6-(4-tert-butylphenyl)-2,4-dimethyl-pyridine-3-carbonyl]amino]butanoyl]amino]-10,13-dioxo-9,12-diazatricyclo[13.3.1.12,6]icosa-1(18),2(20),3,5,15(19),16-hexaene-8-carboxamide]: the MIC under setting [2] is 0.2 µM.

With `CCCCc1ccc(-c2cc(C)c(C(=O)N[C@@H](CCN)C(=O)N(C)[C@@H]3C(=O)N[C@@H](C)C(=O)N[C@H](C(=O)NCC#N)Cc4ccc(OCCN)c(c4)-c4cc3ccc4OCCN)c(C)n2)nc1` (racemic) [Compound 365, rac-(8S,11S,14S)-3,18-bis(2-aminoethoxy)-N-(cyanomethyl)-11-methyl-14-[methyl-[rac-(2S)-4-amino-2-[[6-(5-butyl-2-pyridyl)-2,4-dimethyl-pyridine-3-carbonyl]amino]butanoyl]amino]-10,13-dioxo-9,12-diazatricyclo[13.3.1.12,6]icosa-1(18),2(20),3,5,15(19),16-hexaene-8-carboxamide], under setting [2], the MIC is 0.31 µM.

Take `CCCCOc1c(F)c(F)c(-c2cc(C)c(C(=O)N[C@@H](CCN)C(=O)N(C)[C@@H]3C(=O)N[C@@H](C)C(=O)N[C@H](C(=O)NCC#N)Cc4ccc(OCCN)c(c4)-c4cc3ccc4OCCN)c(C)n2)c(F)c1F` (racemic) [Compound 367, rac-(8S,11S,14S)-3,18-bis(2-aminoethoxy)-N-(cyanomethyl)-11-methyl-14-[methyl-[rac-(2S)-4-amino-2-[[6-(4-butoxy-2,3,5,6-tetrafluoro-phenyl)-2,4-dimethyl-pyridine-3-carbonyl]amino]butanoyl]amino]-10,13-dioxo-9,12-diazatricyclo[13.3.1.12,6]icosa-1(18),2(20),3,5,15(19),16-hexaene-8-carboxamide]: under setting [1], the MIC worked out at 0.5 µM.

Consider `Cc1cc(-c2ccc(C(C)(C)C)cc2[N+](=O)[O-])nc(C)c1C(=O)N[C@@H](CCN)C(=O)N(C)[C@@H]1C(=O)N[C@@H](C)C(=O)N[C@H](C(=O)NCC#N)Cc2ccc(OCCN)c(c2)-c2cc1ccc2OCCN` (racemic) [Compound 368, rac-(8S,11S,14S)-3,18-bis(2-aminoethoxy)-N-(cyanomethyl)-11-methyl-14-[methyl-[rac-(2S)-4-amino-2-[[6-(4-tert-butyl-2-nitro-phenyl)-2,4-dimethyl-pyridine-3-carbonyl]amino]butanoyl]amino]-10,13-dioxo-9,12-diazatricyclo[13.3.1.12,6]icosa-1(18),2(20),3,5,15(19),16-hexaene-8-carboxamide], for which the MIC under setting [2] was 0.5 µM.

Take `Cc1cc(-c2ccc(C(C)(C)C)cc2)cc(N)c1C(=O)N[C@@H](CCN)C(=O)N(C)[C@@H]1C(=O)N[C@@H](C)C(=O)N[C@H](C(=O)NCC#N)Cc2ccc(OCCN)c(c2)-c2cc1ccc2OCCN` (racemic) [Compound 373, rac-(8S,11S,14S)-3,18-bis(2-aminoethoxy)-N-(cyanomethyl)-11-methyl-14-[methyl-[rac-(2S)-4-amino-2-[[2-amino-4-(4-tert-butylphenyl)-6-methyl-benzoyl]amino]butanoyl]amino]-10,13-dioxo-9,12-diazatricyclo[13.3.1.12,6]icosa-1(18),2(20),3,5,15(19),16-hexaene-8-carboxamide]: the MIC under setting [1] stood at 0.13 µM.

For the compound `Cc1c(Oc2ccc(C(C)(C)C)cc2)ccc(C(=O)N[C@@H](CCN)C(=O)N(C)[C@@H]2C(=O)N[C@@H](C)C(=O)N[C@H](C(=O)NCC#N)Cc3ccc(OCCN)c(c3)-c3cc2ccc3OCCN)c1C` (racemic) [Compound 374, rac-(8S,11S,14S)-3,18-bis(2-aminoethoxy)-N-(cyanomethyl)-11-methyl-14-[methyl-[rac-(2S)-4-amino-2-[[4-(4-tert-butylphenoxy)-2,3-dimethyl-benzoyl]amino]butanoyl]amino]-10,13-dioxo-9,12-diazatricyclo[13.3.1.12,6]icosa-1(18),2(20),3,5,15(19),16-hexaene-8-carboxamide], the MIC under setting [2] is 0.25 µM.

Turning to `Cc1c(C(=O)N[C@@H](CCN)C(=O)N(C)[C@@H]2C(=O)N[C@@H](C)C(=O)N[C@H](C(=O)NCC#N)Cc3ccc(OCCN)c(c3)-c3cc2ccc3OCCN)cnn(-c2ccc(C(C)(C)C)cc2)c1=O` (racemic) [Compound 387, rac-(8S,11S,14S)-3,18-bis(2-aminoethoxy)-N-(cyanomethyl)-11-methyl-14-[methyl-[rac-(2S)-4-amino-2-[[1-(4-tert-butylphenyl)-5-methyl-6-oxo-pyridazine-4-carbonyl]amino]butanoyl]amino]-10,13-dioxo-9,12-diazatricyclo[13.3.1.12,6]icosa-1(18),2(20),3,5,15(19),16-hexaene-8-carboxamide], the MIC under setting [2] came out at 8 µM.

Consider `C[C@@H]1NC(=O)[C@@H](N(C)C(=O)[C@H](CCN)NC(=O)N2CCC(c3ccc(C(C)(C)C)cc3)CC2)c2ccc(OCCN)c(c2)-c2cc(ccc2OCCN)C[C@@H](C(=O)NCC#N)NC1=O` (racemic) [Compound 390, rac-(8S,11S,14S)-3,18-bis(2-aminoethoxy)-N-(cyanomethyl)-11-methyl-14-[methyl-[rac-(2S)-4-amino-2-[[4-(4-tert-butylphenyl)piperidine-1-carbonyl]amino]butanoyl]amino]-10,13-dioxo-9,12-diazatricyclo[13.3.1.12,6]icosa-1(18),2(20),3,5,15(19),16-hexaene-8-carboxamide], for which, under setting [2], the MIC was 8 µM.

For `C[C@@H]1NC(=O)[C@@H](N(C)C(=O)[C@H](CCN)NC(=O)c2cc([N+](=O)[O-])c(-c3ccc(C(C)(C)C)cc3)nc2N)c2ccc(OCCN)c(c2)-c2cc(ccc2OCCN)C[C@@H](C(=O)NCC#N)NC1=O` (racemic) [Compound 415, rac-(8S,11S,14S)-3,18-bis(2-aminoethoxy)-N-(cyanomethyl)-11-methyl-14-[methyl-[rac-(2S)-4-amino-2-[[2-amino-6-(4-tert-butylphenyl)-5-nitro-pyridine-3-carbonyl]amino]butanoyl]amino]-10,13-dioxo-9,12-diazatricyclo[13.3.1.12,6]icosa-1(18),2(20),3,5,15(19),16-hexaene-8-carboxamide], the minimum inhibitory concentration (MIC) under setting [2] was 1.5 µM.

Turning to `CC(C)Cc1ccc(-c2ncc(C(=O)N[C@@H](CCN)C(=O)N(C)[C@@H]3C(=O)N[C@@H](C)C(=O)N[C@H](C(=O)NCC#N)Cc4ccc(OCCN)c(c4)-c4cc3ccc4OCCN)c(C(F)F)n2)cc1` (racemic) [Compound 418, rac-(8S,11S,14S)-3,18-bis(2-aminoethoxy)-N-(cyanomethyl)-11-methyl-14-[methyl-[rac-(2S)-4-amino-2-[[4-(difluoromethyl)-2-(4-isobutylphenyl)pyrimidine-5-carbonyl]amino]butanoyl]amino]-10,13-dioxo-9,12-diazatricyclo[13.3.1.12,6]icosa-1(18),2(20),3,5,15(19),16-hexaene-8-carboxamide], the MIC under setting [2] turned out to be 0.064 µM.

With `C[C@@H]1NC(=O)[C@@H](N(C)C(=O)[C@H](CCN)NC(=O)c2cnc(-c3ccc(C(C)(C)C)cc3)nc2OCC(=O)O)c2ccc(OCCN)c(c2)-c2cc(ccc2OCCN)C[C@@H](C(=O)NCC#N)NC1=O` (racemic) [Compound 420, 2-[2-(4-tert-butylphenyl)-5-[[rac-(1S)-3-amino-1-[methyl-[rac-(7S,10S,13S)-3,18-bis(2-aminoethoxy)-13-(cyanomethylcarbamoyl)-10-methyl-8,11-dioxo-9,12-diazatricyclo[13.3.1.12,6]icosa-1(19),2,4,6(20),15,17-hexaen-7-yl]carbamoyl]propyl]carbamoyl]pyrimidin-4-yl]oxyacetic acid], under setting [2], the minimal inhibitory concentration (MIC) is 3 µM.

Usually MIC stands for the lowest concentration found to suppress growth.

The values are drawn from patent publication US20260274892A1, “MACROCYCLIC BROAD SPECTRUM ANTIBIOTICS” (RQx Pharmaceuticals, Inc., priority 2017, published 2026).
